# Experiments:
# [1] = molecular target: CDK4/Cyclin D1 (Homo sapiens (Human), UniProt P11802); assay: CDK4/Cyclin D1 mobility shift assay; type: biochemical; settings: activated CDK4/Cyclin D1, 3.5 mM ATP, fit to Morrison equation; read-out: CDK4D1 Ki
# Description: Biological Assays and Data CDK4/Cyclin D1 Mobility Shift Assay
# (§1) The purpose CDK4/Cyclin D1 assay is to evaluate the inhibition (% inhibition, Kiapp and Ki values) in the presence of small molecule inhibitors by using a fluorescence based microfluidic mobility shift assay. […] The mobility shift assay electrophoretically separates the fluorescently labeled peptides (substrate and phosphorylated product) following the kinase reaction. Both substrate and product are measured and the ratio of these values is used to generate % Conversion of substrate to product by the LabChip EZ Reader.
# The reaction was stopped after 195 minutes by the addition of 50 μL of 30 mM EDTA. Ki determinations were made from a plot of the fractional velocity as a function of inhibitor concentration fit to the Morrison equation with the enzyme concentration as a variable.
# For CDK4 and CDK6 mobility shift assays, see also Morrison, J. F. (1969) Kinetics of the reversible inhibition of enzyme-catalysed reactions by tight-binding inhibitors, Biochimica et biophysica acta 185, 269-286; and Murphy, D. J. (2004) Determination of accurate KI values for tight-binding enzyme inhibitors: an in silico study of experimental error and assay design, Analytical biochemistry 327, 61-67.
# [2] = molecular target: CDK6/Cyclin D3 (Homo sapiens (Human), UniProt Q00534); assay: CDK6/Cyclin D3 mobility shift assay; type: biochemical; settings: activated CDK6/Cyclin D3, 3.5 mM ATP, fit to Morrison equation; read-out: CDK6_D3 Ki
# Description: CDK6/Cyclin D3 Mobility Shift Assay
# as §1, with “of the CDK6/Cyclin D3” for “CDK4/Cyclin D1”, “conversion” for “Conversion”
# The reaction was stopped after 95 minutes by the addition of 50 μL of 30 mM EDTA. Ki determinations were made from a plot of the fractional velocity as a function of inhibitor concentration fit to the Morrison equation with the enzyme concentration as a variable.
# [3] = molecular target: CDK4 (Homo sapiens (Human), UniProt P11802); assay: Phospho-Serine 795 Rb ELISA assay in JEKO-1 cells; type: cell-based; settings: treated overnight, phospho-Ser795 Rb, read-out: CDK4 pRB S795 ELISA JEKO-1 cells IC50
# Description: Phospho-Serine 795 Rb ELISA Assays
# (§2) JEKO-1 or MV4-11 cells were seeded at 15,000 or 20,000 cells per well, respectively, in 100 μL growth media and allowed to incubate at 37° C. with 5% CO2 overnight. The following day, compounds were serially diluted from a 10 mM top dose for an 11-point 3-fold dilution curve in DMSO. Compounds were intermediately diluted 1:200 into growth media prior to diluting 1:5 on cells for final concentration 10 μM to 0.1 nM in 0.1% DMSO on cells. JEKO-1 and MV4-11 cells were treated were treated overnight, at 37° C. with 5% CO2. Cells were lysed in 100 μL/well CST lysis buffer on ice and transferred to pre-coated and blocked anti-phospho-Ser795 Rb ELISA plates for overnight incubation at 4° C. Plates were washed to remove residual, unbound cellular proteins and total Rb detection antibody added for 90 minutes at 37° C. Following wash to remove unbound total Rb antibody, the HRP tagged antibody was allowed to bind for 30 minutes at 37° C. Following wash to remove unbound HRP antibody, Glo Substrate Reagent was added and incubated protected from light for 5 to 10 minutes. Plates were read in luminescence mode and IC50 values calculated.
# [4] = molecular target: CDK6 (Homo sapiens (Human), UniProt Q00534); assay: Phospho-Serine 795 Rb ELISA assay in MV4-11 cells; type: cell-based; settings: treated overnight, phospho-Ser795 Rb, read-out: CDK6 pRB S795 ELISA MV4-11 cells IC50
# Description: as §2
# Chain of CDK4/Cyclin D1 (P11802 whole entry): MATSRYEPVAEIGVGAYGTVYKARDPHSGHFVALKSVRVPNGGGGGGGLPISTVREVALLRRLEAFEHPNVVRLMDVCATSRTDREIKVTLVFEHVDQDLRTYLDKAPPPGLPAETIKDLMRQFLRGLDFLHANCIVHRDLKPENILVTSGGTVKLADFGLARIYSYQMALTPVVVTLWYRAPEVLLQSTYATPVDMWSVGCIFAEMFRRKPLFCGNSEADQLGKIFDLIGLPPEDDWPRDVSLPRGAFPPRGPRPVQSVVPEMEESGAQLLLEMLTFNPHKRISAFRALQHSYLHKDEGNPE
# Chain of CDK4/Cyclin D1 (P24385 whole entry partner): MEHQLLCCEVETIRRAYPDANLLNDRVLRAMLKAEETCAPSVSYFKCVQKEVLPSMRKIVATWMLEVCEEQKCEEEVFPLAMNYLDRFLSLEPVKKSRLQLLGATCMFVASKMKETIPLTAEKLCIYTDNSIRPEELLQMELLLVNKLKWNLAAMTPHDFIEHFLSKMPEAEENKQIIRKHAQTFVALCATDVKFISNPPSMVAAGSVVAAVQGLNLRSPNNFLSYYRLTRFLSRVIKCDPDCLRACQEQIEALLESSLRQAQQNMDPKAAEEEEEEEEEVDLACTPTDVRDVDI
# Chain of CDK4 (P11802 2-303): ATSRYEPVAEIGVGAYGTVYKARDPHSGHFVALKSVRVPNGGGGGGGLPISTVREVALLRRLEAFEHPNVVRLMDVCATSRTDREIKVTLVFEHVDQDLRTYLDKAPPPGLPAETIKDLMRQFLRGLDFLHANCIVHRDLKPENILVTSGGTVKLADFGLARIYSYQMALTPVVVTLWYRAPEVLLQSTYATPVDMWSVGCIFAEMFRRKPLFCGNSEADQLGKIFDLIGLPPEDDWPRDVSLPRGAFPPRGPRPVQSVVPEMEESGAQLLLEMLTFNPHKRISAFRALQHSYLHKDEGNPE
# Chain of CDK4 (P24385 whole entry partner): as the sequence (P24385 whole entry partner) above
# Chain of CDK6 (Q00534 whole entry): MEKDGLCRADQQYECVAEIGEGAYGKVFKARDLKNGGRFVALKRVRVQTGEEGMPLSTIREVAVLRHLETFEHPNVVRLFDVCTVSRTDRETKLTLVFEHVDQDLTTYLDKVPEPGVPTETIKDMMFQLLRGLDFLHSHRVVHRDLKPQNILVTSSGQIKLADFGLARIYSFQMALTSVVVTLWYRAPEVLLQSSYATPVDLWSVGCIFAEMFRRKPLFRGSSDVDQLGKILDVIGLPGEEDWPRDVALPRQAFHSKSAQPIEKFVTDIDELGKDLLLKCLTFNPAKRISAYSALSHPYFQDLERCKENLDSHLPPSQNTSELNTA
# Chain of CDK6 (P30281 whole entry partner): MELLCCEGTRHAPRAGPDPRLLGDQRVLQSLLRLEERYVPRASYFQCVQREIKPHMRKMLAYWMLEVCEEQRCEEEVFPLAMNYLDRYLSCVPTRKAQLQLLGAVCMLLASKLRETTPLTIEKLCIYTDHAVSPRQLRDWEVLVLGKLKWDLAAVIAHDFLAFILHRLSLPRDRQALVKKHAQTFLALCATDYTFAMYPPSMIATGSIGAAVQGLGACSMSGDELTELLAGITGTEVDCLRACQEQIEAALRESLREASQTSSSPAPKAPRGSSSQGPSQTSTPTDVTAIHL
# Chain of CDK6/Cyclin D3 (Q00534 whole entry): as the sequence (Q00534 whole entry) above
# Chain of CDK6/Cyclin D3 (P30281 whole entry partner): as the sequence (P30281 whole entry partner) above
SMILES,Ki [1] [nM],Ki [2] [nM],IC50 [3] [nM],IC50 [4] [nM]
CS(=O)(=O)N1CC[C@@H](Nc2ncc(Cl)c(-c3cc(F)c4ncn(C5CC5)c4c3)n2)[C@H](O)C1 [Example A15],0.3,2.4,,
CCC1COCc2nc3c(F)cc(-c4nc(N[C@@H]5CCN(S(C)(=O)=O)C[C@H]5O)ncc4F)cc3n21 (some centres unmarked) [Example A17],0.1,0.4,9.9,13.4
CS(=O)(=O)N1CC[C@@H](Nc2ncc(Cl)c(-c3cc(F)c4ncn(C5CCOC5)c4c3)n2)[C@H](O)C1 (some centres unmarked) [Example A14],0.5,4.6,,
CC(C)n1c(C(C)(C)O)nc2c(F)cc(-c3nc(N[C@H]4CCOC[C@H]4O)ncc3Cl)cc21 [Example A35],1.5,58.9,124,967
CC1(C)COCc2nc3c(F)cc(-c4nc(N[C@@H]5CCN(S(C)(=O)=O)C[C@H]5O)ncc4F)cc3n21 [Example A18],0.2,2.3,25,77.2
CC(C)c1c2cc(-c3nc(N[C@@H]4CCN(S(C)(=O)=O)C[C@H]4O)ncc3Cl)cc(F)c2nn1C [Example A25],,1.3,13.3,30.6
CC(C)n1cnc2c(Cl)cc(-c3nc(N[C@@H]4CCN(S(C)(=O)=O)C[C@H]4O)ncc3Cl)cc21 [Example A16],0.2,2.7,25.7,98.1

# Source: patent US11220494B2, “Cyclin dependent kinase inhibitors” (Pfizer Inc., priority 2018, dated 2022)
